Laboratory results: US8349768B2, “Use of abscisic acid to alter sensory characteristics of white grapes and wine” (Valent BioSciences Corporation, priority 2007, dated 2013)

How the values were obtained:
[1] = system: white wine grape cultivar 'Chardonnay'; test: Chardonnay field experiment: spectral analysis of berries at harvest; format: in vivo, grapevine; details: for A280 / A320 / A420 / Est. of brown pigments / Total Flavonoids / Total Hydroxycinnamates / Total Phenolics: Chardonnay berries at harvest
Experimental: (§1) A large block unreplicated field experiment was conducted on the white wine grape cultivar ‘Chardonnay’ in the Riverina growing region of New South Wales, Australia to test the effect of S-ABA on white grapes. Three treatments were tested: Untreated control, 200 ppm S-ABA applied at pre-veraison and 200 ppm S-ABA applied at veraison. Each block consisted of 4 rows and covered 0.4 Ha in size. S-ABA was applied using a commercial airblast sprayer. S-ABA was applied at a concentration of 200 ppm in a volume of approximately 1000 L/Ha (approximately 100 gallons/A) in order to achieve thorough and complete coverage of the grape bunches. A 20% S-ABA soluble granule formulation was utilized in the experiment. The commercial surfactant Kendeen 20 was included at a rate of 50 ml/100 L spray. Applications of S-ABA were made at pre-veraison (approximately 3 weeks before veraison or berry softening) and veraison. Irrigation, summer pruning, insecticide/fungicides and other routine vine management practices were the same as those practiced commercially by the grower in the adjacent parts of the vineyard.
Grapes samples were harvested at the time of commercial harvest for berry analysis and table wine production. For the standard maturity berry measurements, 12-20 bunches per replicate were sampled. Bunches were randomly selected from both sides of the vines. Samples were analyzed using standard analytical methods used by the grape and wine industry. For additional spectral analyses, samples of 100 berries from each treatment were collected prior to winemaking.

[2] = system: white wine grape cultivar 'Semillon'; test: Semillon wine sensory analysis: straight judgment of difference test; format: in vivo, grapevine; details: for Statistically significant (difference from reference wine) / Number of tasters who selected as different from reference wine/Total number of tasters: Semillon wine; for Number of tasters who selected as different from reference wine/Total number of tasters: reference = untreated control
Experimental: (§2) A replicated field experiment was conducted on the white wine grape cultivar ‘Semillon’ in the Riverina growing region of New South Wales, Australia to test the effect of S-ABA on white grapes. Four treatments were tested: Untreated control, 200 ppm S-ABA applied at pre-veraison, 200 ppm S-ABA applied at veraison, and 200 ppm S-ABA applied during the post-veraison period (berry sugar level of 10-11 Baume (18-20° brix)). There were 4 replicates of each treatment and the experiment was laid out in a randomized complete block (RCB) design. S-ABA was applied using a commercial airblast sprayer. S-ABA was applied at a concentration of 200 ppm in a volume of approximately 2000 L/Ha (approximately 200 gallons/A) in order to achieve thorough and complete coverage of the grape bunches. A 20% S-ABA soluble granule formulation was utilized in the experiment. The commercial surfactant Agral was included at a rate of 10 ml/100 L spray. Applications of S-ABA were made at pre-veraison (approximately 3 weeks before veraison or berry softening), veraison, and during the post-veraison period when the grape sugar levels had reached approximately 10-11 Baume (18-20° brix). The 10-11 Baume application took place 36 days after the veraison application. Irrigation, summer pruning, insecticide/fungicides and other routine vine management practices were the same as those practiced commercially by the grower in the adjacent parts of the vineyard.
(§3) Wine was produced from the grapes from each of the S-ABA treatments. Small lot primary fermentations were conducted and the wine was bottled. Triplicate ferments of each treatment were conducted using approximately 3×50 kg of grapes. Each replicate ferment contained an equal volume of grapes from each of the four field replicates. Grapes were harvested from the central panels within each replicate. All grapes were harvested from both sides of the vines from these panels. The grapes were transferred immediately to the experimental winery, protected from heat and treated with sulfur dioxide. A standard winemaking protocol used for small-scale replicated primary fermentations was followed. Following the fermentation, the wine was bottled.
(§4) Sensory analysis was conducted on the treated and untreated wines. A panel consisting of nine experienced wine tasters evaluated the wines for aroma and taste. The wine grape cultivar was identified, but no information regarding the field treatments was identified to the tasters.
A straight judgment of difference test was conducted to determine if the wines were different from the untreated control. […] Therefore, these wines can be considered to be different from the reference wine, thereby implying a treatment effect.

[3] = system: white wine grape cultivar 'Chardonnay'; test: Chardonnay grape tasting panel; format: in vivo, grapevine; details: Chardonnay grapes sampled at preharvest and at harvest; panel of two tasters; 200 ppm S-ABA
Experimental: as §1

[4] = system: white wine grape cultivar 'Semillon'; test: Semillon grape tasting panel; format: in vivo, grapevine; details: Semillon grapes sampled at preharvest and at harvest; panel of three tasters; 200 ppm S-ABA
Experimental: as §2, with “Irrigation, summer pruning, insecticide/fungicides and other routine vine management practices were the same as those practiced commercially by the grower in the adjacent parts of the vineyard.” left out

grapes = details: S-ABA application on grapes; Han et al. 1996; cited from earlier work
[5] = system: white wine grape cultivar 'Semillon'; test: Semillon wine descriptive analysis; format: in vivo, grapevine; details: for Aroma (descriptor): untreated: low aroma, some fruit; for Color (descriptor): untreated: pale straw
Experimental: as §2, §3, §4
A wine descriptive analysis was also conducted for the Semillon wines prepared from the untreated control and from the S-ABA treatments. The panels provided descriptive terms to characterize the aroma, taste and color profile of each wine. The methodology used was based on survey-style collection with a thematic analysis to pull out the most consistent terms (Table 5).

[6] = system: white wine grape cultivar 'Chardonnay'; test: Chardonnay wine chemical (spectral) analysis; format: in vivo, grapevine
Experimental: as §1
Wine was produced from the grapes from each of the S-ABA treatments. Small lot primary fermentations were conducted and the wine was bottled. […] ferments of each treatment were conducted using approximately 3×50 kg of grapes. Each replicate ferment contained an equal volume of grapes from entire panels of vines. All grapes were harvest from both sides of the vines from these panels. The grapes were transferred immediately to the experimental winery, protected from heat and treated with sulfur dioxide. A standard winemaking protocol used for small-scale replicated primary fermentations was followed. Following the fermentation, the wine was bottled.
Chemical analyses were conducted on the wines prepared from the various treatments in the field experiment using industry standard analytical methods.

grapevines = details: application of S-ABA; During and Broquedis 1980; cited from earlier work
[7] = 200 ppm S-ABA applied at pre-veraison
[8] = 200 ppm S-ABA applied at veraison
[9] = 200 ppm S-ABA applied post-veraison (11 Baume)

With “(S)-5-(1-hydroxy-2,6,6,-trimethyl-4-oxo-2-cyclohexen-1-yl)-3-methyl-(2Z,4E)-pentadienoic acid [S-ABA]” the A280 [1, 7] was 17.37, the A320 [1, 7] was 3.53 and the A420 [1, 7] was 0.530. For the same substance, the “Est. of brown pigments” value [1, 7] was 0.530 a.u, the “Total Flavonoids” value [1, 7] was 11.96 a.u and the “Total Hydroxycinnamates” value [1, 7] was 2.13 a.u. The “Total Phenolics” value [1, 7] was 13.37 a.u, the A280 [1, 8] was 14.07 and the A320 [1, 8] was 3.38. The A420 [1, 8] was 0.567, the “Est. of brown pigments” value [1, 8] was 0.567 a.u and the “Total Flavonoids” value [1, 8] was 8.76 a.u. The “Total Hydroxycinnamates” value [1, 8] was 1.98 a.u, the “Total Phenolics” value [1, 8] was 10.07 a.u and the “Total phenolics, hydroxycinnamates, total flavonoids and estimate of brown pigments (chemical analysis)” value ([1]; Chardonnay berries, 200 ppm S-ABA treatments vs untreated) was “some differences”. For the same substance, the “Judgment of difference from the reference wine (untreated control)” value ([2]; All Semillon wines from the S-ABA treatments, nine tasters, with statistical significance) was “judged to be different from the reference wine”, the “Statistically significant (difference from reference wine)” value [2, 7] was “Yes” and the “Number of tasters who selected as different from reference wine/Total number of tasters” value [2, 7] was 8/9. The “Statistically significant (difference from reference wine)” value [2, 8] was “Yes”, the “Number of tasters who selected as different from reference wine/Total number of tasters” value [2, 8] was 8/9 and the “Statistically significant (difference from reference wine)” value [2, 9] was “Yes”. The “Number of tasters who selected as different from reference wine/Total number of tasters” value [2, 9] was 8/9, the “Flavor of S-ABA treated grapes vs untreated grapes” value [3] was “notable differences in flavor” and the “Flavor of S-ABA treated grapes vs untreated grapes” value [4] was “notable differences in flavor”. For the same substance, the “Berry and cluster weight” value (grapes) was “increase berry and cluster weight”, the “Taste (descriptor)” value ([5]; 200 ppm S-ABA applied at pre-veraison, untreated: citrus, acidic) was “Much more acidic” and the “Aroma (descriptor)” value [5, 7] was “More intense fruit”. The “Color (descriptor)” value [5, 7] was “Pale straw”, the “Aroma (descriptor)” value [5, 8] was “More intense fruit” and the “Aroma (descriptor)” value [5, 9] was “More intense fruit”. For the same substance, the “Color (descriptor)” value [5, 9] was “Pale straw”, the “Effect on fruit aroma and acidic taste of the wine” value ([5]; 200 ppm S-ABA treatments) was “increased or intensified” and the “Total Hydroxycinnamates” value [6, 7] was 3.14 a.u. The “Total Phenolics” value [6, 7] was 2.55 a.u, the “Total Hydroxycinnamates” value [6, 8] was 3.19 a.u and the “Total Phenolics” value [6, 8] was 2.97 a.u. The “Balance of hydroxycinnamates and phenolics in S-ABA treated wines” value ([6]; spectral analysis, 200 ppm S-ABA treatments) was “different balance of hydroxycinnamates and phenolics” and the “Stomatal resistance in grapevines” value (grapevines) was “increase stomatal resistance”.
